The results in this text go back to publication PMC6081459, “Pathogen-derived HLA-E bound epitopes reveal broad primary anchor pocket tolerability and conformationally malleable peptide binding” (Nature Communications, 2018).

The test system of test [1] is Mamu-E restricted CD8^+ T cells. The format is cell-based, rhesus macaques (Macaca mulatta).
For a further test, the target named is HLA-E*01:03 (Homo sapiens, UniProt P13747). The test can be described thus: Single-chain peptide-β2m-HC construct, HLA-E surface expression in transfected 293T cells. The format is cell-based. The note with it: peptide encoded in single-chain peptide-β2M-HC construct, 24 h after transfection, flow cytometry, scaled to index position 2 residue, n = 4. For orientation: Flow cytometry measures light scatter and fluorescence of single cells or particles in a stream.

In the case of RFPAKAPLL [Mtb44*P2-Phe], the “Magnitude of CD8+ T cell responses to Mtb44 and position 2 variants” value (from here on “Magnitude of CD8+ T cell responses”) in test [1] was “responses of similar magnitude”. The “Relative HLA-E surface expression (MFI, 3D12 antibody)” value on HLA-E*01:03 was “highest relative levels of HLA-E surface expression”.

With RLPAKAPLL [Mtb44], in test [1], the “Magnitude of CD8+ T cell responses” value is on record as “responses of similar magnitude”.

Consider RQPAKAPLL [Mtb44*P2-Gln], for which the “Magnitude of CD8+ T cell responses” value in test [1] is recorded as “responses of similar magnitude”.
